These results are taken from US8741338B2, “Targeted delivery to human diseases and disorders” (Universidade de Coimbra, priority 2008, dated 2014).

One test deals with HMEC-1 cells. Nature of the test: MTT proliferation assay, cytotoxicity of DXR formulations. The class given is cell-based. As to conditions: Homo sapiens, total 96 h. As for the experimental part: (§1) In vitro cytotoxicity of free doxorubicin (DXR) and DXR-containing liposomes was determined for […] and HMEC-1 cells using the MTT (3-(4,5-Dimethylthiazol-2-yl)-2,5-diphenyltetrazolium bromide) proliferation assay (Mosmann, 1983). Briefly, cells were plated in 96-well plates at a density of 8,000 cells per well and incubated with free DXR, non-targeted pH-sensitive (or non-pH-sensitve) liposomes containing DXR or targeted pH-sensitive (or non-pH-sensitve) liposomes containing DXR. Additional controls included free peptide and empty targeted liposomes. Cells were incubated for 1, 3, 24 and 48 h at 37° C. in an atmosphere of 95% humidity and 5% CO2. At the end of the incubation time, cells were gently washed twice with cold PBS to remove DXR and maintained in fresh medium for a total of 96 h. After incubation, the medium was replaced by a solution of 0.5 mg/ml MTT and the cells were further incubated for 4 h at 37° C. in an atmosphere of 95% humidity and 5% CO2. Crystals were dissolved in acidic isopropanol and absorbance in each well was read at 570 nm in a microplate reader (Multiscan EX—Thermo Electron Corporation). IC50 of DXR mediated by the different formulations was determined from the dose/response curves.

The subject of another test is MDA-MB-435S cells. The description is as above. The class given is cell-based. Conditions: Homo sapiens, total 96 h. As for the experimental part: as §1

As to `COc1cccc2c1C(=O)c1c(O)c3c(c(O)c1C2=O)C[C@@](O)(C(=O)CO)C[C@@H]3O[C@H]1C[C@H](N)[C@H](O)[C@H](C)O1` [DXR, Doxorubicin], the IC50 (in general, the concentration at which inhibition is half-maximal) was found to be 434 ± 30 nM in the test on HMEC-1 cells (HMEC-1, HMEC-1, 1 h incubation with drug); 401 ± 59 nM in the test with HMEC-1 cells (HMEC-1, HMEC-1, 3 h incubation with drug); 72 ± 10 nM with HMEC-1 cells (HMEC-1, HMEC-1, 24 h incubation with drug); 58 ± 8 nM in the test on HMEC-1 cells (HMEC-1, HMEC-1, 48 h incubation with drug); 1610 ± 460 nM in the test with MDA-MB-435S cells (1 h incubation with drug); 1450 ± 270 nM with MDA-MB-435S cells (3 h incubation with drug). Also, the IC50 in the test with MDA-MB-435S cells (24 h incubation with drug) stood at 232 ± 45 nM; in the test with MDA-MB-435S cells (48 h incubation with drug), 113 ± 78 nM.
